The values that follow come from patent US8232274B2, “Pyridazinone derivatives useful as glucan synthase inhibitors” (Albany Molecular Research, Inc., priority 2007, dated 2012).

Test [1] deals with T1, glucan synthase (Saccharomyces cerevisiae, UniProt P38631).
T1 construct: glucan synthase sources (2 μL permeabilized PM503 cells, or 3 μL membrane preparations from either PM503, BWP17, or ND158); endogenous in cells; host or cells: S. cerevisiae strain PM503, permeabilized cells or 100,000 g membrane fraction
T1 sequence (P06780 1-206): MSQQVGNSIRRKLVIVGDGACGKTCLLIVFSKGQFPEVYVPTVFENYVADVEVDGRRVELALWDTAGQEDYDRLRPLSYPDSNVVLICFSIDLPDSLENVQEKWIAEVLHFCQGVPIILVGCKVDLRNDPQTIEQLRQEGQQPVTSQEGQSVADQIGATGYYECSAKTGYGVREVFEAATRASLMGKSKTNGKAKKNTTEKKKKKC
T1 sequence (P38631 whole entry): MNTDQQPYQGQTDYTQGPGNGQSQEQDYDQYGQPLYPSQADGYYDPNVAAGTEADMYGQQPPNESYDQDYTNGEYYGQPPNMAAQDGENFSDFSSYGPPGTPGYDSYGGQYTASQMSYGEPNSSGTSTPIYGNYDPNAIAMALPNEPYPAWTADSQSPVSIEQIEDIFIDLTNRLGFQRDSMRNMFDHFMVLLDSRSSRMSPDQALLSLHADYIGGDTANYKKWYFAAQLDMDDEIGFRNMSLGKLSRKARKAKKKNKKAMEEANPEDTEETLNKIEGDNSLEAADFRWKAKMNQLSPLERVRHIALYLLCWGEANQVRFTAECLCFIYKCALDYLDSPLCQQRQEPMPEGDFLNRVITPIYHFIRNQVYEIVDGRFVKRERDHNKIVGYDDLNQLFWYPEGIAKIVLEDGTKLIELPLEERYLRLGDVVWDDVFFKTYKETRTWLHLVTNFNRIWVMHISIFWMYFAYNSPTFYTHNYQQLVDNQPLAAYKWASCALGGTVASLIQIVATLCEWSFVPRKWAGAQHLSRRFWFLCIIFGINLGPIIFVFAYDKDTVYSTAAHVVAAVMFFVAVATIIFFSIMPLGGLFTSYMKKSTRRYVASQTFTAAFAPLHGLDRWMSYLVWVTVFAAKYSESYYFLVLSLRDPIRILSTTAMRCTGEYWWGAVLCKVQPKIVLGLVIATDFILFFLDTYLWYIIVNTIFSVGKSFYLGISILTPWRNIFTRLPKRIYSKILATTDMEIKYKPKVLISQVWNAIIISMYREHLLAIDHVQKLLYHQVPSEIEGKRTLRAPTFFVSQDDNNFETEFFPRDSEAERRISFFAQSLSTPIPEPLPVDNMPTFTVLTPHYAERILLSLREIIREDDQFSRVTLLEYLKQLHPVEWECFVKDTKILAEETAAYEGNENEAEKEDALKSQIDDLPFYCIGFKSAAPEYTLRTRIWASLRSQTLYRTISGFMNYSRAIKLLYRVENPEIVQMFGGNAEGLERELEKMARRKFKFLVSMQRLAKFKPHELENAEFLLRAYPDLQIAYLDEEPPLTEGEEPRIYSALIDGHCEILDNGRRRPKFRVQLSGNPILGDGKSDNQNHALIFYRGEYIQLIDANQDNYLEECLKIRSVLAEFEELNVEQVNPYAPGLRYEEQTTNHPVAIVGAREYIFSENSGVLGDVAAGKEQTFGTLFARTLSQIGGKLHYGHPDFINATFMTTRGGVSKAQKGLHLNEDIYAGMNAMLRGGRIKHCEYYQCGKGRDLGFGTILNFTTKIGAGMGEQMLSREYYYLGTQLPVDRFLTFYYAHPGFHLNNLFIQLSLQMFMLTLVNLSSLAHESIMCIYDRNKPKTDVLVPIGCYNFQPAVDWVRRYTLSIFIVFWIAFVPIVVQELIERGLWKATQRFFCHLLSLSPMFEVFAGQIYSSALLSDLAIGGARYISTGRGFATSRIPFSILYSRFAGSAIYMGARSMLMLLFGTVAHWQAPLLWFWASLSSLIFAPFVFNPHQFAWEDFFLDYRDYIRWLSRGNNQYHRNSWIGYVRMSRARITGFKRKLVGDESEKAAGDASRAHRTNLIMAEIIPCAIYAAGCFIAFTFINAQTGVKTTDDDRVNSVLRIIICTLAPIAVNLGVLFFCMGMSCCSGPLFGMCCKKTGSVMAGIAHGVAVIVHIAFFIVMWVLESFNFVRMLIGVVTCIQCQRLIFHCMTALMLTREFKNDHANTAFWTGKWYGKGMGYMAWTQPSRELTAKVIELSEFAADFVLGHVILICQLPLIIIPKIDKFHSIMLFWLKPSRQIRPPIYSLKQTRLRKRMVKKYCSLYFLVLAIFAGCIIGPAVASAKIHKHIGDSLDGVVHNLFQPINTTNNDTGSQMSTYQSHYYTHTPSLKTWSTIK
The test is described as follows: β(1,3) glucan synthase assay, S. cerevisiae PM503 permeabilized cells or membrane preparation (IC50). In kind it is biochemical. How it is done: (§1) β(1,3) Glucan Synthase Assay:
1. Preparation of Permeabilized Saccharomyces cerevisiae Cells.
Permeabilization of yeast cells was performed according to Crotti et al. (Analytical Biochemistry, 292, 8-16, 2001) with some modifications. A 10 ml-starter culture of the S. cerevisiae strain in YPD medium (1% yeast extract, 2% bacto-peptone, 2% dextrose) with OD600=3-4 was used to inoculate 1 liter of YPD. The culture was grown at 30° C. until […]. Cells were collected by centrifugation (5,300 g for 15 min at 4° C.) and resuspended in buffer (40 mM EDTA, 100 mM β-mercaptoethanol) at 1 g of cell pellet/3.5 ml buffer. The cell suspension was shaken for 30 min at 30° C., followed by centrifugation at 12,000 g for 10 min at 4° C. The cell pellet was washed with 5 ml 0.8 M sorbitol and resuspended in 6.8 ml of 2.9 mM citric acid, 11.3 mM dibasic sodium phosphate, 1 mM EDTA, 0.8 M sorbitol, with constant shaking at 30)C for 30 min. After centrifugation at 12,000 g for […] at 4° C., the pellet was resuspended in 31.3 ml 50 mM Tris-HCl, pH 7.0, and incubated on ice for 5 min. The mixture was then centrifuged at 12,000 g for 10 min at 4 AC, and the pellet was resuspended in 1 ml of 50 mM Tris-HCl and 33% glycerol, pH 7.5. The permeabilized cell preparation was stored at […] in aliquots.
(§2) 2. Preparation of Membrane Fraction of Yeast Cells
(§3) The protocol was modified from Douglas et al. (Journal of Bacteriology, 176, 5686-5696, 1994). For the preparation of S. cerevisiae and C. albicans membrane fractions, 1 liter of YPD supplemented with 0.02 mg/mL adenine and 0.08 mg/mL uracil was inoculated with 10 mL starter culture of PM503 (OD600=4) or the C. albicans strain BWP17 (OD600=12) in the same medium and grown at 30° C. until OD600 reached about 1. A. fumigatus (stain ND158) membranes were prepared by first preparing a spore suspension from agar slants by adding 6 mL of sterile saline, 0.1% Tween-20 solution to each slant, and resuspending by pipetting and scraping. The spore suspensions were used to inoculate two 200 mL flasks containing Sabouraud dextrose broth media. Cultures were incubated at 37° C., 250 rpm for ˜8 hrs. All cells, S. cerevisiae, C. albicans or A. fumigatus were harvested by centrifugation at 5,300 g at 4° C. for 40 minutes. After washing with 100 mL of breakage buffer (0.1 M KPi, pH 7.0, 1 mM EDTA, 1 mM DTT), the cell pellet was resuspended in 50 ml ice-cold breakage buffer. The mixture was transferred to a bead-beater chamber packed in ice (BioSpec Products, Bartlesville, Okla.). To each 50 mL sample was added 50 g of acid-washed glass beads ([…], Sigma). Cells were disrupted using 12×20 second pulses with 2 min-cooling intervals. Cell debris was removed by centrifugation at 3,000 g for 20 minutes at 4° C., and the supernatant was collected and centrifuged at 100,000 g for 1 hour at 4° C. to pellet the membrane fraction. The pellet was resuspended in 5 mL of ice-cold breakage buffer containing 25% glycerol, homogenized with a Dounce tissue homogenizer and stored at −80° C. in small aliquots.
(§4) 3. Glucan Synthase Assay and Compound Screening
The assay was performed according to Mo et at (Journal of Biological Chemistry, 269, 31267-31274, 1994) and Taft et al. (The Journal of Antibiotics, 47, 1001-1009, 1994), in a 96-well Optiplate (PerkinElmer). To each well was added 3 μL 10× compound stock (in 100% DMSO), or 3 μL of 30 μg/mL caspofungin in 100% DMSO (as positive control), or 3 μL 100% DMSO (as negative control), followed by the addition of appropriate amount of glucan synthase sources (2 μL permeabilized PM503 cells, or 3 μL membrane preparations from either PM503, BWP17, or ND158). The reaction was initiated by adding 25 μL reaction buffer (0.6 mM UDP-Glucose 0.6 nCi [U-^14C]DUP-Glucose (327 mCi/mmol, Amersham Bioscience), 20 μM GTP-γ-S, 25 mM NaF, 7.5 mg/mL BSA, 8% glycerol in 75 mM Tris-HCl, pH 7.5). […]

Test [2] concerns the target T2, glucan synthase (Candida albicans, UniProt O13428).
T2 construct: glucan synthase sources (2 μL permeabilized PM503 cells, or 3 μL membrane preparations from either PM503, BWP17, or ND158); endogenous in cells; host or cells: C. albicans strain BWP17, 100,000 g membrane fraction
Nature of the test: β(1,3) glucan synthase assay, C. albicans BWP17 membrane preparation (IC50). The format is biochemical. The settings on record: in vitro fungal enzyme activity assay, read-out: IC50 (μg/mL) Candida albicans (converted). How it is done:
as §1, §2, §3, §4
The assay was performed according to Mo et at (Journal of Biological Chemistry, 269, 31267-31274, 1994) and Taft et al. (The Journal of Antibiotics, 47, 1001-1009, 1994), in a 96-well Optiplate (PerkinElmer). To each well was added 3 μL 10× compound stock (in 100% DMSO), or 3 μL of 30 μg/mL caspofungin in 100% DMSO (as positive control), or 3 μL 100% DMSO (as negative control), followed by the addition of appropriate amount of glucan synthase sources (2 μL permeabilized PM503 cells, or 3 μL membrane preparations from either PM503, BWP17, or ND158). The reaction was initiated by adding 25 μL reaction buffer (0.6 mM UDP-Glucose 0.6 nCi [U-^14C]DUP-Glucose (327 mCi/mmol, Amersham Bioscience), 20 μM GTP-γ-S, 25 mM NaF, 7.5 mg/mL BSA, 8% glycerol in 75 mM Tris-HCl, pH 7.5). The plate was incubated on a shaker for 1.5 hour at room temperature before being quenched with 250 μL 1% TCA (Trichloroacetic Acid). The quenched reaction was mixed by pipetting, and immediately transferred to a 96-well filter plate (Glass fiber B on 0.65 μm hydrophilic durapore membrane, Millipore) pre-wetted with wash buffer (5% TCA, 60 mM NaPPi). The glucan product was retained on the filter membrane by applying vacuum to the plate using a MultiScreen Resist Vacuum Manifold (Millipore). The filter plate was further washed 4 times with 200 μL wash buffer. The plate was dried at 50° C. for 30 minutes. 100 μL of Microscint-0 (PerkinElmer) was added to each well, and plate was counted in a TopCount NXT plate reader (PerkinElmer).
Dose-response curves were plotted from inhibition data generated. IC50 was determined by fitting the CPM versus the Concentration of the test compound plot with the following equation (4-parameter logistic model, ID Business Solutions XLfit 4.2).

T2 sequence (O13428 1-1897): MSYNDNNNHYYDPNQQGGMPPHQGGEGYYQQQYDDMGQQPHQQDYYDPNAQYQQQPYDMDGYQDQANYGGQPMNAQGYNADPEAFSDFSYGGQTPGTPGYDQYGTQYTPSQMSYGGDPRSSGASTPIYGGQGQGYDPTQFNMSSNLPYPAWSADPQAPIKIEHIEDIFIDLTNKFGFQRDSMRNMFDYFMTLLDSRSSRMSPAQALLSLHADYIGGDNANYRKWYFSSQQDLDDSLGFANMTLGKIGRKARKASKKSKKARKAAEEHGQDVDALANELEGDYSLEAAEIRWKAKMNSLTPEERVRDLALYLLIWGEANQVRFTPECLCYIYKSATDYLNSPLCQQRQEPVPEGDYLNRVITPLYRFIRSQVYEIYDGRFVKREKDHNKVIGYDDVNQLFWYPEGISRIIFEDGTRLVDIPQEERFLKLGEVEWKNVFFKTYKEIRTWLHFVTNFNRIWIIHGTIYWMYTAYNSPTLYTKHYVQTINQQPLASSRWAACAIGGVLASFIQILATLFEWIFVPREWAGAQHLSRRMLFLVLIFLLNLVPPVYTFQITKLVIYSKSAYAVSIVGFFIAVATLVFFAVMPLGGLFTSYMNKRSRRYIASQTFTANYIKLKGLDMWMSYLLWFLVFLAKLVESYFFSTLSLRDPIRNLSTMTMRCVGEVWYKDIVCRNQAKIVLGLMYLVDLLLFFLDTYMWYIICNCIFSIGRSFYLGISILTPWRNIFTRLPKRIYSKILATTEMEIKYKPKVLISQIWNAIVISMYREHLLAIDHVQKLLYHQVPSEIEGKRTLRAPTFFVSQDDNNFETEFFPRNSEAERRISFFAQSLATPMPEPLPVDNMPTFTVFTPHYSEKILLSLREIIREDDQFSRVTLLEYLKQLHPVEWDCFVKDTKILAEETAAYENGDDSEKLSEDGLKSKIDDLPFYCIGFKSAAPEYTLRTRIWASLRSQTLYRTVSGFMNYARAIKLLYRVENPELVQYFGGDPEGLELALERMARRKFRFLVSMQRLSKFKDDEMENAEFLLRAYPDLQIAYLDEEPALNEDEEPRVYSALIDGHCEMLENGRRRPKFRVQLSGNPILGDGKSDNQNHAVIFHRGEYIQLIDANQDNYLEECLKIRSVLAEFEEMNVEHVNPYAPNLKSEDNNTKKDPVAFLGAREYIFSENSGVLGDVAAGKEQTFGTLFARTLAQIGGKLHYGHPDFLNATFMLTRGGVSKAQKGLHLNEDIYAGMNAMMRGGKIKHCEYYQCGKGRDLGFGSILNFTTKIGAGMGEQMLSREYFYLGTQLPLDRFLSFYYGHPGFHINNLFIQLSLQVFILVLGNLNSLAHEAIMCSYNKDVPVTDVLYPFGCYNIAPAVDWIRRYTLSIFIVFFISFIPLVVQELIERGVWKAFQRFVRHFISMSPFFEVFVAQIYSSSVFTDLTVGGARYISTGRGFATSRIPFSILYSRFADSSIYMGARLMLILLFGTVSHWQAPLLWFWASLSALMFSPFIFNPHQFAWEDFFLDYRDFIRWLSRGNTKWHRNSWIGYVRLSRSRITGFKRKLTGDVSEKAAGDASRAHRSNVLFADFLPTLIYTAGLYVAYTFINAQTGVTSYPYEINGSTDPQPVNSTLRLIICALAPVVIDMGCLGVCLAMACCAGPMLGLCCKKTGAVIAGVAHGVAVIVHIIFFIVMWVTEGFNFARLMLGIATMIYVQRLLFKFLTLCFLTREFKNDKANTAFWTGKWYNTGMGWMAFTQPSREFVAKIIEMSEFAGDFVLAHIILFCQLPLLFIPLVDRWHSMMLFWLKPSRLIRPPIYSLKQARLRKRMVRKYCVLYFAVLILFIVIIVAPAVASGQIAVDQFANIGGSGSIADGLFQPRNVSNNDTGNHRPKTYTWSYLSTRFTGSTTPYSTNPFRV
T2 sequence (O42825 1-195 partner limits assumed): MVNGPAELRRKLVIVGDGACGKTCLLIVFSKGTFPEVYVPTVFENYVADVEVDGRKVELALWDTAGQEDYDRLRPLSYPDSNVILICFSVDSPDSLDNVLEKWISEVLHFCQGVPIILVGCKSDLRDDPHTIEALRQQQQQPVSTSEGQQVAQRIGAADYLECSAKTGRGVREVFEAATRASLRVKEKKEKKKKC

Consider `CC1CCC(Oc2c(N3CCN(S(=O)(=O)CCCF)CC3)cnn(-c3cccc(Cl)c3)c2=O)C1` (stereo not shown) [1761Z], for which the results for the IC50 in test [1] and in test [2] were 136 nM and 312 nM, respectively.

In the case of `CC(C)S(=O)(=O)N1CCN(c2cnn(-c3cc(F)cc(F)c3)c(=O)c2Sc2ccccc2)CC1` [19Z], the IC50 is 160 nM in test [1] and 3360 nM in test [2].

`CC1(COc2c(N3CCN(S(=O)(=O)NCc4ccc(N)cc4)CC3)cnn(-c3cc(F)cc(F)c3)c2=O)CC1` [1634Z]: the IC50 is 303 nM in test [1] and 196 nM in test [2].

Take `CC1(COc2c(N3CCN(S(=O)(=O)Cc4ccc(C#N)cc4)CC3)cnn(-c3cccc(Cl)c3)c2=O)CC1` [1529Z-56]: the IC50 in test [1] was 307 nM; in test [2], 108 nM.

As for `O=c1c(OCC2(CF)CC2)c(N2CCN(S(=O)(=O)Cc3ccccc3)CC2)cnn1-c1cccc(Cl)c1` [1122Z], the IC50 in test [1] and in test [2] was 54.8 nM in each case.

Turning to `O=c1c(OCC2CC2)c(N2CCN(S(=O)(=O)Cc3ccccc3)CC2)cnn1-c1cccc(Cl)c1` [1529Z-185], the figures for the IC50 in test [1] and in test [2] were 11.6 nM and 38.8 nM, respectively.

Regarding `Cc1cc(CS(=O)(=O)N2CCN(c3cnn(-c4cc(F)cc(F)c4)c(=O)c3OCC3(C)CC3)CC2)ccc1N` [1870Z], the IC50 in test [1] is 53.6 nM; in test [2], 125 nM.

On to `CCCCCCCOc1c(N2CCN(S(=O)(=O)CC)CC2)cnn(-c2ccccc2)c1=O` [244Z], for which the IC50 in test [1] was 201 nM; in test [2] it was 886 nM.

As for `O=c1c(OC2CCCC2)c(N2CCN(S(=O)(=O)NCc3ccccc3)CC2)cnn1-c1cccc(Cl)c1` [808Z], the IC50 is 55.1 nM in test [1] and 91.9 nM in test [2].

Take `O=c1c(N2CCCCC2)c(N2CCN(S(=O)(=O)Cc3ccccc3)CC2)cnn1-c1ccc(F)cc1` [61Z]: the IC50 in test [1] is 625 nM; in test [2] it was 2540 nM.

`Cc1cc(CS(=O)(=O)N2CCN(c3cnn(-c4cccc(Cl)c4)c(=O)c3OCC3(C)CC3)CC2)ccc1N` [1869Z]: the IC50 was 53.8 nM in test [1] and 143 nM in test [2].

On to `CC(C)(C)COc1c(N2CCN(S(=O)(=O)Cc3cccc(N)c3)CC2)cnn(-c2cc(F)cc(F)c2)c1=O` [1529Z-190], for which the IC50 in test [1] was 91.3 nM; in test [2], 219 nM.

Consider `Nc1ccc(CS(=O)(=O)N2CCN(c3cnn(-c4cccc(Cl)c4)c(=O)c3OCC3CCC3)CC2)cc1` [1529Z-73], for which the figures for the IC50 in test [1] and in test [2] were 165 nM and 349 nM, respectively.

In the case of `Cc1ccc(CNS(=O)(=O)N2CCN(c3cnn(-c4cccc(Cl)c4)c(=O)c3OCC3(C)CC3)CC2)cc1N` [1683Z], the IC50 in test [1] is 140 nM; in test [2], 122 nM.

As for `Nc1ccc(CS(=O)(=O)N2CCN(c3cnn(-c4cc(F)cc(F)c4)c(=O)c3OCC3(CF)CC3)CC2)cc1` [932Z], the values for the IC50 in test [1] and in test [2] were 71 nM and 231 nM, respectively.

Consider `O=c1c(-c2ccc(C3CCCCC3)cc2)c(N2CCN(S(=O)(=O)Cc3ccccc3)CC2)cnn1-c1cc(F)cc(F)c1` [96Z], for which the values for the IC50 in test [1] and in test [2] were 364 nM and 1550 nM, respectively.

Take `O=c1c(OC2CCCC2)c(N2CCN(S(=O)(=O)Cc3ccccc3)CC2)cnn1-c1cccc(F)c1` [1402Z]: the IC50 in test [1] is 39 nM; in test [2], 117 nM.

Consider `CC1(COc2c(N3CCN(S(=O)(=O)Cc4ccc(Br)cc4)CC3)cnn(-c3cc(F)cc(F)c3)c2=O)CC1` [1529Z-33], for which the IC50 in test [1] was 16.4 nM; in test [2], 32.8 nM.

In the case of `O=c1c(OC2CCCC2)c(N2CCN(S(=O)(=O)Cc3cc(Cl)cc(Cl)c3)CC2)cnn1-c1cccc(Cl)c1` [553Z], the IC50 in test [1] is 184 nM; in test [2], 351 nM.

For `CC1(COc2c(N3CCN(S(=O)(=O)Cc4cccnc4N)CC3)cnn(-c3cccc(Cl)c3)c2=O)CC1` [Compound 1574Zr], the values for the IC50 in test [1] and in test [2] were 110 nM and 239 nM, respectively.

For `CC1(COc2c(N3CCN(S(=O)(=O)Cc4cccc(Cl)c4N)CC3)cnn(-c3cc(F)cc(F)c3)c2=O)CC1` [Compound 1574Zq], the IC50 in test [1] is 69 nM; in test [2], 138 nM.

Regarding `CC(C)S(=O)(=O)N1CCN(c2cnn(-c3cccc(F)c3)c(=O)c2OCCCCCCC(C)(C)F)CC1` [801Z], the IC50 was 18.5 nM in test [1] and 55.5 nM in test [2].

Take `CC1CC1COc1c(N2CCN(S(=O)(=O)Cc3ccccc3)CC2)cnn(-c2cc(F)cc(F)c2)c1=O` (stereo not shown) [1529Z-182]: the IC50 in test [1] was 1.88 nM; in test [2], 18.8 nM.

For `O=c1c(Nc2ccc(F)cc2)c(N2CCN(S(=O)(=O)Cc3ccccc3)CC2)cnn1-c1cccc(Cl)c1` [47Z], the results for the IC50 in test [1] and in test [2] were 45.1 nM and 415 nM, respectively.

For the compound `Nc1ccc(CS(=O)(=O)N2CCN(c3cnn(-c4cccc(Cl)c4)c(=O)c3OCc3ccccc3)CC2)cc1` [1529Z-19], the IC50 in test [1] is 70.7 nM; in test [2] it was 230 nM.

For `O=c1c(OCC2(CF)CC2)c(N2CCN(S(=O)(=O)NCc3ccc4ncoc4c3)CC2)cnn1-c1cccc(Cl)c1` [1743Z], the IC50 in test [1] is 116 nM; in test [2], 99.5 nM.

Consider `CCOCCOc1c(N2CCN(c3ncc([N+](=O)[O-])s3)CC2)cnn(-c2cccc(C)c2)c1=O` [240Z], for which the IC50 in test [1] and in test [2] was 201000 nM each time.

Take `N[C@@H](Cc1ccc(Cl)cc1)C(=O)N1CCN(c2cnn(-c3ccccc3)c(=O)c2Sc2ccc(F)cc2)CC1` [1Z]: in test [2], the IC50 was 17700 nM.
